From ChEMBL document CHEMBL1201862, “PubChem BioAssay data set” (2004)
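Growth conditions: 96-well plates. Treatment: test compound, 48 hours, 5 concentrations. Analysis: linear interpolation between bracketing concentrations; unreached endpoints set to highest concentration. The concentration for 50% growth inhibition is given as GI50.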 The source made the active and inactive calls. Cut-off read from the data, not from the text of the source: active = GI50 up to about 1.1 µM and inactive = higher.

Assays:
Test in all cases: NCI-60 cell line screen, 48 h
[1] = tested on: MOLT-4
[2] = tested on: HCT-15
[3] = tested on: SK-OV-3
[4] = tested on: UO-31
[5] = tested on: HCC 2998
[6] = tested on: SK-MEL-2
[7] = tested on: SR
[8] = tested on: HT-29
[9] = tested on: RPMI-8226
[10] = tested on: HCT-116
[11] = tested on: HOP-92
[12] = tested on: TK-10
[13] = tested on: SNB-75
[14] = tested on: SK-MEL-28
[15] = tested on: K562
[16] = tested on: OVCAR-8
[17] = tested on: UACC-257
[18] = tested on: OVCAR-4
[19] = tested on: SF-539
[20] = tested on: SW-620

SMILES	GI50 [1]	GI50 [2]	GI50 [3]	GI50 [4]	GI50 [5]	GI50 [6]	GI50 [7]	GI50 [8]	GI50 [9]	GI50 [10]	GI50 [11]	GI50 [12]	GI50 [13]	GI50 [14]	GI50 [15]	GI50 [16]	GI50 [17]	GI50 [18]	GI50 [19]	GI50 [20]
O=C(Nc1ccc([N+](=O)[O-])cc1)C(=O)C(C(=O)c1ccccc1F)C1OC(=O)c2ccccc21 (stereo not given)	26 µM (inactive)	29.9 µM	41.2 µM (inactive)	38.1 µM (inactive)	21 µM (inactive)	23.7 µM (inactive)	21.9 µM (inactive)	51.9 µM (inactive)	18.2 µM (inactive)	31.6 µM (inactive)	> 100 µM (inactive)	> 100 µM (inactive)	30.2 µM (inactive)	46.9 µM (inactive)	25.3 µM (inactive)	35.9 µM (inactive)	86.5 µM (inactive)	42.8 µM (inactive)	21.5 µM (inactive)	49 µM (inactive)
COc1ccc(/N=C\c2ccc(N(CCC#N)S(=O)(=O)c3ccccc3)cc2C)cc1	27.4 µM (inactive)	8.53 µM	> 100 µM (inactive)	23.3 µM (inactive)	32 µM (inactive)	23.3 µM (inactive)	7.96 µM (inactive)	53.7 µM (inactive)	> 100 µM (inactive)	87.1 µM (inactive)	> 100 µM (inactive)	22.9 µM (inactive)	> 100 µM (inactive)	39.9 µM (inactive)	11.1 µM (inactive)	> 100 µM (inactive)	39.5 µM (inactive)	74.6 µM (inactive)	44.2 µM (inactive)	59.8 µM (inactive)
COc1ccc2c(O)c3[n+](cc2c1OC)CCc1cc2c(cc1-3)OCO2	> 100 µM (inactive)	84.3 µM	> 100 µM (inactive)		> 100 µM (inactive)	> 100 µM (inactive)	39.3 µM (inactive)	63.2 µM (inactive)	84.3 µM (inactive)	41.8 µM (inactive)	> 100 µM (inactive)	> 100 µM (inactive)	> 100 µM (inactive)		38.5 µM (inactive)	> 100 µM (inactive)	> 100 µM (inactive)	> 100 µM (inactive)	> 100 µM (inactive)	45.5 µM (inactive)
O=c1c(-c2ccccc2)c(SCCN2CCOCC2)n(-c2ccccc2)c(=S)n1-c1ccccc1	> 100 µM (inactive)	> 100 µM	> 100 µM (inactive)		> 100 µM (inactive)	> 100 µM (inactive)	> 100 µM (inactive)		> 100 µM (inactive)		25.2 µM (inactive)	46.6 µM (inactive)	26.4 µM (inactive)	> 100 µM (inactive)	> 100 µM (inactive)	63 µM (inactive)	> 100 µM (inactive)	32.1 µM (inactive)	> 100 µM (inactive)	> 100 µM (inactive)
